Experimental data taken from the NIST ThermoML archive (doi:10.1021/je200350a).

Assay: xn = mol fraction of the nth substance listed
Settings: 101 kPa, Liquid; for viscosity: Capillary tube (Ostwald / Ubbelohde) method

CCCCBr [1-bromobutane] + O=[N+]([O-])c1ccccc1
Settings | mass density, 293.15 K [kg/m3] | mass density, 298.15 K [kg/m3] | mass density, 303.15 K [kg/m3] | mass density, 308.15 K [kg/m3] | viscosity, 293.15 K [mPa·s] | viscosity, 298.15 K [mPa·s] | viscosity, 303.15 K [mPa·s] | viscosity, 308.15 K [mPa·s]
x2 = 0.123 | 1270.9 | 1263.5 | 1256.5 | 1249 | 0.7256 | 0.6851 | 0.6486 | 0.615
x2 = 0.2445 | 1262.8 | 1256.6 | 1249.8 | 1242.4 | 0.8243 | 0.7761 | 0.7321 | 0.692
x2 = 0.3645 | 1253.7 | 1247.1 | 1240.8 | 1234.3 | 0.9397 | 0.8811 | 0.828 | 0.7802
x2 = 0.424 | 1249.7 | 1244 | 1238 | 1230.7 | 0.9936 | 0.9308 | 0.8743 | 0.8225
x2 = 0.542 | 1240.8 | 1234.4 | 1228.2 | 1222.2 | 1.131 | 1.055 | 0.986 | 0.925
x2 = 0.6585 | 1229.4 | 1223.8 | 1218.5 | 1212.4 | 1.281 | 1.19 | 1.109 | 1.037
x2 = 0.7737 | 1220.6 | 1214.7 | 1209.9 | 1205.1 | 1.477 | 1.364 | 1.266 | 1.18
x2 = 0.8875 | 1211.5 | 1206.6 | 1201.6 | 1196 | 1.703 | 1.566 | 1.447 | 1.34
x2 = 0.9439 | 1206.7 | 1201.6 | 1196.5 | 1191.2 | 1.835 | 1.682 | 1.548 | 1.43

O=[N+]([O-])c1ccccc1 [nitrobenzene] + CC1CCCCC1
Settings | mass density, 293.15 K [kg/m3] | mass density, 298.15 K [kg/m3] | mass density, 303.15 K [kg/m3] | mass density, 308.15 K [kg/m3] | viscosity, 293.15 K [mPa·s] | viscosity, 298.15 K [mPa·s] | viscosity, 303.15 K [mPa·s] | viscosity, 308.15 K [mPa·s]
x1 = 0.1422 | 820.2 | 816.2 | 812.4 | 808.2 | 0.785 | 0.735 | 0.6901 | 0.649
x1 = 0.2103 | 845.2 | 840.8 | 837.4 | 832.3 | 0.8282 | 0.7723 | 0.7233 | 0.6777
x1 = 0.3412 | 900.9 | 897.5 | 894.2 | 891 | 0.9436 | 0.8765 | 0.8177 | 0.7653
x1 = 0.404 | 919.6 | 915.6 | 912.8 | 909 | 0.9971 | 0.9244 | 0.8618 | 0.8054
x1 = 0.5249 | 973.2 | 970.2 | 965 | 962.6 | 1.125 | 1.042 | 0.9677 | 0.9044
x1 = 0.6397 | 1027 | 1022.7 | 1019.6 | 1016 | 1.266 | 1.172 | 1.089 | 1.015
x1 = 0.7489 | 1075.7 | 1071.6 | 1067.8 | 1062.9 | 1.416 | 1.312 | 1.218 | 1.136
x1 = 0.853 | 1123.6 | 1119.2 | 1114.5 | 1111.5 | 1.613 | 1.484 | 1.371 | 1.272
x1 = 0.9031 | 1150.8 | 1146.3 | 1142 | 1137.5 | 1.718 | 1.58 | 1.46 | 1.354
